Patent publication US6958360B2, “Attractant pheromone for the Colorado potato beetle” (The United States of America as represented by the …, priority 2001, dated 2005)

Key:
[1] = system: antennal olfactory receptors (short sensillum on the penultimate antennal segment of a CPB); assay: Single sensillum (single cell) recording of receptor neuron response; set-up: species or system Leptinotarsa decemlineata; conditions: 100 ng source load; solvent control 8
Protocol: (§1) Sensitivity of antennal olfactory receptors for the racemate and optical isomers of the male specific compound were tested using coupled GC/EAD and single sensillum recording techniques. GC/EAD tests involved injection of 1 μl of serial dilutions of 3,7-dimethyl-2-oxo-oct-6-ene-1,3-diol (CPB I).

CPB adult antenna = assay: Coupled GC/electroantennogram detection (GC/EAD, EAG); set-up: species or system Leptinotarsa decemlineata; conditions: for EAD response to compound in volatile collections (in words): volatiles from potato plants / CPB feeding on plant
Protocol: Vertical bars represent standard errors (N=6, 3 males and 3 females).
GC/EAD analysis of volatile collections: One microlitre samples of volatile collections were injected into a Hewlett Packard™ Model 5890A gas chromatograph (GC) equipped with an HP-5 capillary column (crosslinked 5% PH ME Siloxane; film thickness 0.25 μm; length 30 m; i.d. 0.25 mm) and flame ionization detector (FID). The effluent from the column was split using a Gerstel™ GraphPack-3D/2 splitter with a ratio of ˜1 to the GC (FID): 4 to an electroantennogram preparation of a CPB adult (EAD). The EAD preparation was an adult CPB antenna removed and mounted between two glass capillary electrodes filled with 0.1M NaCl. Ag—AgCl wires in the glass capillaries. An effluent conditioning assembly to carry GC effluent over a CPB antennal preparation, hardware, and software for data collection and analyses using a computer were obtained from SYNTECH (Hilversum, the Netherlands). After an initial temperature of 50° C. held for 2 minutes following injection, the GC oven increased at 15° C./min to 235° C. which was held for 8 minutes.
as §1

[2] = system: Colorado potato beetle (CPB); assay: Open Y-track olfactometer behavioral bioassay, optical isomers vs solvent control; type: in vivo, Leptinotarsa decemlineata; conditions: serial source loads 0.0001 to 1.0 μg vs solvent control, male and female
Protocol: Chemical blends and plant foliage were tested for behavioral activity in an open Y-track olfactometer modified after Visser and Piron (Visser, J. H., and P. G. M. Piron, Proceedings of the Section Experimental and Applied Entomology of the Netherlands Entomological Society Amsterdam, 9: 41-46 (1998)) and described in detail by Dickens (Dickens, J. C., Agric. Forest Entomol., 1: 47-54 (1999)). In brief, odorous stimuli emanating from volatile collections from CPB males feeding on potato plants or the male-specific compound on filter paper discs (2.5 cm dia.; Whatman™ #1 filter paper) in Ehrlenmeyer flasks were delivered to either side of the device. Hydrocarbon free air that was humidified by passing through distilled water carried the odor molecules to either arm of the bioassay apparatus. Treatments were replenished after 30 min of use in the bioassay apparatus. Airflow was regulated to 1 l/min by flowmeters. Experiments were conducted in a darkened room at 22° C. in which the only source of light was that associated with the bioassay device. For all bioassays, at least 20 males and 20 females were tested.
Volatile collections from male CPB feeding for three hours on a potato plant and serial dilutions of the male specific compound were tested as 10 μl aliquots placed on a filter paper disc as described above. The male specific compound was tested at 1.0 μg/10 μl solvent (hexane) and in a dilution series ranging from 0.0001 to 1.0 μg/10 μl solvent.
Prior to testing at age 7-14 days, unmated insects were held individually in 5.5 oz. cups, provided with fresh potato foliage on a continuous basis, and maintained under incubator conditions of a 16:8 light:dark cycle, 80-90% R.H., and “day” and “night” temperatures of 25° C. and 23° C., respectively. On the day of testing, insects were transferred to smaller 1 oz. cups and held for 1-3 hrs with moist filter paper but no foliage, then held in darkness for an additional 1-2 hrs.
Individual testing in a darkened room at 22° C. began by allowing the beetle to climb onto or be placed approximately midway up the vertical rod of the “T.” In response to a positive phototaxis to light from a flashlight mounted above the “T” and negative geotaxis, the beetles generally climbed upward. Once the insect began waving its antennae, presumably in response to test odors, its forward progress continued. Orientation was scored as soon as the test insect had moved completely from the horizontal to one of the 45 extension arms of the bioassay device. Following each test, the bioassay device was cleaned with acetone to remove contamination left by the insect. For any given series of tests, approximately half were done with the treatment and associated test apparatus on one side, and half were done with them on the other side.
Laboratory bioassays were assessed for significant differences by the hypothesis on binomial proportions based on the standard normal approximation (Brase, C. H., and C. P. Brase (1983), Understanding Statistics, Lexington, Mass.: D. C. Heath).

male CPB = assay: Enhancement of production of male-specific compound CPB I (24 hour volatile collection); type: in vivo, Leptinotarsa decemlineata
Protocol: CPB I=male-specific compound; P=6-methyl-5-hepten-2-one; FID=response of flame ionization detector. Electroantennogram (EAD) response is included for A-C.
Volatiles were collected from male CPB feeding on 4.8 g of potato foliage in the 3 L VCC. Collections were made continuously for a 24-hour period with a single VCT. Subsequently, volatiles from groups of 20 female CPB were similarly collected in the 3 L VCC continuously for 24 hours with a single VCT.
In an attempt to increase production of the male specific compound, males were subject to the following treatments: JHIII in acetone, extirpation of both antennae, and extirpation of both antennae+JHIII in acetone. All treatments were repeated at least three times. For the JHIII treatment, […] of a 5 μg/ml solution of JHIII was applied to the prothoracic sternum between the coxae. Antennae were removed at the third segment from the proximal end. All treatments were performed 1 hour before placing beetles into the VCC. For the treatment with both antennae removed+JHIII, three separate collections were made continuously for at least seven days following treatment. The collection chamber was cleaned, rinsed, and fresh foliage added daily.

SMILES: CC(C)=CCCC(C)(O)C(=O)CO (racemic) [racemic CPB I, 3,7-dimethyl-2-oxo-oct-6-ene-1,3-diol]
- action potentials during 500 msec following the initial phasic increase [1]: 18 action potentials
- Mean EAG (in words) (CPB adult antenna; 10 ng injection, males and females combined): intermediate response
- orientation preference (in words) [2]: no significant preference

SMILES: OCCc1ccccc1 [2-phenyl ethanol, reference compound]
- EAD response to compound in volatile collections (in words) (CPB adult antenna): an EAD response for 2-phenyl ethanol was also observed

SMILES: CC(C)=CCC[C@@](C)(O)C(=O)CO [(R)-CPB I]
- action potentials during 500 msec following the initial phasic increase [1]: 9 action potentials
- orientation preference (in words) [2]: inactive
- orientation preference (in words) ([2]; listed as (R)-enantiomer): no significant preference

SMILES: COC(=O)/C=C(\C)CC/C=C(\C)CC[C@H]1OC1(C)C [JH III, juvenile hormone III]
- production of CPB I after topical treatment (male CPB; 10 μg JH III topical, 20 males, 24 hour collection, untreated mean 53 ng): 396.2 ng
- enhancement of collections of CPB I (male CPB; JH III and antennectomy): ~200 ×
- enhancement of CPB I production relative to untreated males (male CPB; JH III topical alone): eightfold
- production of CPB I after combined treatment (male CPB; JH III topical and antennectomy): 8833 ng
- increase of quantities of CPB I released vs control insects (male CPB; JH III treatment and antennectomy): 166 times

SMILES: CCCCCCCCC=O [nonanal, reference compound]
- EAD response to compound in volatile collections (in words) (CPB adult antenna): EAD responses were present
